# Assay results: ChEMBL document CHEMBL3822449, “[Dmt(1)]DALDA analogues modified with tyrosine analogues at position 1” (Bioorg Med Chem Lett, 2016)
# Tests used:
# [1] = target: Delta-type opioid receptor (Mus musculus, UniProt P32300); assay: Agonist activity at delta opioid receptor in albino mouse vas deferens assessed as inhibition of electrically-stimulated muscle contraction; format: tissue-based
# [2] = Antioxidant activity assessed as DPPH radical scavenging activity incubated for 30 mins; format: physicochemical; details: 0.5 h
# Delta-type opioid receptor, sequence (P32300 whole entry): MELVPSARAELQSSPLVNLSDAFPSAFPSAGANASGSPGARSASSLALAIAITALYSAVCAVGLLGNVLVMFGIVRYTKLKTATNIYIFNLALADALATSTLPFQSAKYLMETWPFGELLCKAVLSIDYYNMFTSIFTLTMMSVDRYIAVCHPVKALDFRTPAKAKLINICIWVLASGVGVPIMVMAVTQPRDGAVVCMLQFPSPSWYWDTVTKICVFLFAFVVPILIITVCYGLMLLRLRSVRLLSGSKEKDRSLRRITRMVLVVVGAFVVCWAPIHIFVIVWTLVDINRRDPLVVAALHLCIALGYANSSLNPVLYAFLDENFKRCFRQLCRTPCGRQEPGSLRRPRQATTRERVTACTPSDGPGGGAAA
smiles,measurement,setting,value
NCCCC[C@H](NC(=O)[C@H](Cc1ccccc1)NC(=O)[C@@H](CCCN=C(N)N)NC(=O)[C@@H](N)Cc1ccc(O)cc1)C(N)=O,IC50,[1],781 nM
Cc1cc(O)cc(C)c1C[C@H](N)C(=O)N[C@H](CCCNC(=N)N)C(=O)N[C@@H](Cc1ccccc1)C(=O)N[C@@H](CCCCN)C(N)=O,Activity,[2],31.64%
